The IC50 is the midpoint of a concentration-inhibition curve. A word on the IC90: it is the point of the concentration-response curve where the effect stands at 90%.

Data set [1] has as its system L. donovani axenic amastigotes. Nature of the data set: In vitro antileishmanial assay against L. donovani axenic amastigotes. The format is cell-based. Conditions: Leishmania donovani, 72 h; for IC50: read-out: L. donavani Amastigotes IC50; for IC90: read-out: L. donavani Amastigotes IC90.
Data set [2] is described as follows: Cytotoxicity against THP1 cell cultures. It counts as cell-based, human. Conditions: human, THP1 cell cultures.
Data set [3] deals with L. donovani intracellular amastigotes in THP1 cells. It counts as cell-based, Leishmania donovani.
The subject of data set [4] is L. donovani promastigotes. The experiment in a line: In vitro antileishmanial assay against L. donovani promastigotes. The format is cell-based. The settings on record: Leishmania donovani, 72 h; for IC50: read-out: L. donavani Promastigotes IC50; for IC90: read-out: L. donavani Promastigotes IC90.
A further data set has as its system THP1 cells. Nature of the data set: Cytotoxicity against THP1 cell cultures. It counts as cell-based, human. The settings on record: THP1 cells; for IC50: read-out: THP1 cells (Cytotoxicity) IC50; for IC90: read-out: THP1 cells (Cytotoxicity) IC90.
The test system of data set [5] is L. donovani amastigotes in mouse macrophages. Conditions: cited from earlier work.
Where [6] appears, read: read-out: L. donavani Amastigotes + THP1 IC50, intracellular amastigotes in differentiated THP1 macrophages.
Where [7] appears, read: read-out: L. donavani Amastigotes + THP1 IC90, intracellular amastigotes in differentiated THP1 macrophages.

Like-named read-outs stand apart in the source and are kept apart here. Where only a bound is given, the exact number is not on record here.

For `C[C@@H]1[C@H](O)[C@@H](C)/C=C/C=C/C=C/C=C/C=C/C=C/C=C/[C@H](O[C@@H]2O[C@H](C)[C@@H](O)[C@H](N)[C@@H]2O)C[C@@H]2O[C@](O)(C[C@@H](O)C[C@@H](O)[C@H](O)CC[C@@H](O)C[C@@H](O)CC(=O)O[C@H]1C)C[C@H](O)[C@H]2C(=O)O` [Amphotericine B], the half-inhibitory concentration (IC50) in data set [1] was 0.79 µM; in data set [2], over 10 µM; in data set [3] (Leishmania donovani, THP-1, read-out: L. donavani Amastigotes + THP1 IC50), 0.48 µM; in data set [4], 0.134 µM. The IC90 in data set [1] was 0.959 µM; in data set [2], over 10 µM; in data set [3] (Leishmania donovani, THP-1, read-out: L. donavani Amastigotes + THP1 IC90), 1.94 µM; in data set [4], 0.262 µM.

With `CN1CCCN2CCN(CCCN(Cc3ccccc3)CC2)CC1` [Bn1Me1Bcyclam (L2)], the IC50 (in the data set on THP1 cells; in data set [3] (setting [6])) was over 20 µM in each case. For the same molecule, the concentration for an effect of 90% (IC90) (with THP1 cells; in data set [3] (setting [7])) was over 20 µM throughout.

As to `c1ccc(CN2CCN3CCN(CC2)CCN(Cc2ccccc2)CC3)cc1` [Bn2Bcyclen (L3)], the half-inhibitory concentration (IC50) (in the data set with THP1 cells; in data set [3] (setting [6])) was over 25 µM each time. Besides, the concentration for an effect of 90% (IC90) (in the data set on THP1 cells; in data set [3] (setting [7])) was over 25 µM each time.

For the molecule `c1ccc(CN2CCCNCCN(Cc3ccccc3)CCCNCC2)cc1` [Bn2Cyclam (L10), 1,8-dibenzylcyclam], the IC50 with THP1 cells was over 25 µM; in data set [3] (setting [6]) it was 12.9 µM. The concentration for an effect of 90% (IC90) was over 25 µM with THP1 cells and 13.2 µM in data set [3] (setting [7]).

Take `c1ccc(CN2CCN3CCCN(CC2)CCN(Cc2ccccc2)CC3)cc1` [Bn2PBCyclen (L4)]: the results for the half-maximal inhibitory concentration (IC50) (in the data set on THP1 cells; in data set [3] (setting [6])) were over 25 µM and 18.2 µM, respectively. Moreover, the IC90 (in the data set on THP1 cells; in data set [3] (setting [7])) was over 25 µM throughout.

Regarding `Cl.Cl.Cl.N=C(N)c1cccc(/C=N/N=C(\N)N/N=C/c2cccc(C(=N)N)c2)c1` [CGP40215A], in data set [5] (mouse macrophages), the “concentration inhibiting growth of L. donovani amastigotes in mouse macrophages” value was “up to 90 μM”.

With `c1ccc(CNCCCNCCCCCCCNCCCNCc2ccccc2)cc1` [MDL27695], the “elimination of L. donovani amastigotes from mouse macrophages” value in data set [5] (at a 1 μM concentration) was 77–100%.

For `N=C(N)c1ccc(OCCCCCOc2ccc(C(=N)N)cc2)cc1` [Pentamidine], the IC50 was 20.4 µM in data set [1], over 20 µM in data set [2] and 2.93 µM in data set [4]. Moreover, the figures for the IC90 in data set [1], in data set [2] and in data set [4] were over 25 µM, over 25 µM and 6.52 µM, respectively.

The values are drawn from publication PMC6452907 (Polyhedron, 2019).
